Counter-ions that a name gives are not always drawn.
How the values were obtained:
NLRP3 [1] = target: T1, NLRP3 (Homo sapiens, UniProt Q96P20); assay: Human whole blood IL1β release assay; assay type: cell-based; set-up: Human whole blood in Li-heparin tubes was obtained from healthy donors; from tissue; host or cells: human whole blood from healthy donors, LPS-primed, nigericin-stimulated; conditions: human whole blood, 1 μg/ml LPS, compound 3 hrs, nigericin 10 μM 1 hr, IL-1β AlphaLisa; read-out: HWB IC50
Description: Human Whole Blood IL1β Release Assay
For systemic delivery, the ability to inhibit NLRP3 when the compounds are present within the bloodstream is of great importance. For this reason, the NLRP3 inhibitory activity of a number of compounds in human whole blood was investigated in accordance with the following protocol.
Human whole blood in Li-heparin tubes was obtained from healthy donors from a volunteer donor panel. • 1. Plate out 80 μl of whole blood containing 1 μg/ml of LPS in 96-well, clear bottom cell culture plate (Corning #3585) • 2. Add 10 μl compound (8 points half-log dilution with 10 μM top dose) or vehicle (DMSO 0.1% FAC) to the appropriate wells • 3. Incubate for 3 hrs at 37° C., 5% CO2 • 4. Add 10 μl Nigericin (Sigma #N7143) (10 μM FAC) to all wells • 5. Incubate for 1 hr at 37° C., 5% CO2 • 6. At the end of the incubation period, spin plates at 300 xg for 5 mins to pellet cells and remove 20 μl of supernatant and add to 96-well v-bottom plates for IL-1β analysis (note: these plates containing the supernatants can be stored at −80° C. to be analysed at a later date) • 7. IL-1β was measured according to the manufacturer protocol (Perkin Elmer-AlphaLisa IL-1 Kit AL220F-5000) • 8. IC50 data is fitted to a non-linear regression equation (log inhibitor vs response-variable slope 4-parameters)

NLRP3 [2] = target: T1, NLRP3; assay: THP-1 cells pyroptosis assay; assay type: cell-based; set-up: Seed THP-1 cells (25,000 cells/well) containing 1.0 μg/ml LPS; host or cells: THP-1 cells, LPS-primed, nigericin-stimulated; conditions: THP-1 cells, 1.0 μg/ml LPS, compound 3 hrs, nigericin 5 μM 1 hr, resazurin readout; read-out: THP IC50
Excerpt: NLRP and Pyroptosis It is well established that the activation of NLRP3 leads to cell pyroptosis and this feature plays an important part in the manifestation of clinical disease (Yan-gang Liu et al., Cell Death &Disease, 2017, 8(2), e2579; Alexander Wree et al., Hepatology, 2014, 59(3), 898-910; Alex Baldwin et al., Journal of Medicinal Chemistry, 2016, 59(5), 1691-171; Ema Ozaki et al., Journal of Inflammation Research, 2015, 8, 15-27; Zhen Xie & Gang Zhao, Neuroimmunology Neuroinflammation, 2014, 1(2), 60-65; Mattia Cocco et al., Journal of Medicinal Chemistry, 2014, 57(24), 10366-10382; T. Satoh et al., Cell Death &Disease, 2013, 4, e644). Therefore, it is anticipated that inhibitors of NLRP3 will block pyroptosis, as well as the release of pro-inflammatory cytokines (e.g. […]) from the cell. THP-1 Cells: Culture and Preparation THP-1 cells (ATCC #TIB-202) were grown in RPMI containing L-glutamine (Gibco #11835) supplemented with imM sodium pyruvate (Sigma #S8636) and penicillin (100 units/ml)/streptomycin (0.1 mg/ml) (Sigma #P4333) in 10% Fetal Bovine Serum (FBS) (Sigma #Fo804). The cells were routinely passaged and grown to confluency (˜10^6 cells/ml). On the day of the experiment, THP-1 cells were harvested and resuspended into RPMI medium (without FBS). The cells were then counted and viability (>90%) checked by Trypan blue (Sigma #T8154). Appropriate dilutions were made to give a concentration of 625,000 cells/ml. To this diluted cell solution was added LPS (Sigma #L4524) to give a […] Final Assay Concentration (FAC). 40 μl of the final preparation was aliquoted into each well of a 96-well plate. The plate thus prepared was used for compound screening. THP-1 Cells Pyroptosis Assay The following method step-by-step assay was followed for compound screening. • 1. Seed THP-1 cells (25,000 cells/well) containing 1.0 μg/ml LPS in 40 μl of RPMI medium (without FBS) in 96-well, black walled, clear bottom cell culture plates coated with poly-D-lysine (VWR #734-0317) • 2. Add […] compound (8 points half-log dilution, with 10 μM top dose) or vehicle (DMSO 0.1% FAC) to the appropriate wells • 3. […] Add 5 μl nigericin (Sigma #N7143) (FAC 5 μM) to all wells • 5. […] At the end of the incubation period, spin plates at 300 xg for 3 mins and remove supernatant • 7. Then add 50 μl of resazurin (Sigma #R7017) (FAC 100μ M resazurin in RPMI medium without FBS) and incubate plates for a further 1-2 hrs at 37° C. and 5% CO2 • 8. Plates were read in an Envision reader at Ex 560 nm and Em 590 nm • 9. IC50 data is fitted to a non-linear regression equation (log inhibitor vs response-variable slope 4-parameters) [table]

T1 sequence (Q96P20 whole entry): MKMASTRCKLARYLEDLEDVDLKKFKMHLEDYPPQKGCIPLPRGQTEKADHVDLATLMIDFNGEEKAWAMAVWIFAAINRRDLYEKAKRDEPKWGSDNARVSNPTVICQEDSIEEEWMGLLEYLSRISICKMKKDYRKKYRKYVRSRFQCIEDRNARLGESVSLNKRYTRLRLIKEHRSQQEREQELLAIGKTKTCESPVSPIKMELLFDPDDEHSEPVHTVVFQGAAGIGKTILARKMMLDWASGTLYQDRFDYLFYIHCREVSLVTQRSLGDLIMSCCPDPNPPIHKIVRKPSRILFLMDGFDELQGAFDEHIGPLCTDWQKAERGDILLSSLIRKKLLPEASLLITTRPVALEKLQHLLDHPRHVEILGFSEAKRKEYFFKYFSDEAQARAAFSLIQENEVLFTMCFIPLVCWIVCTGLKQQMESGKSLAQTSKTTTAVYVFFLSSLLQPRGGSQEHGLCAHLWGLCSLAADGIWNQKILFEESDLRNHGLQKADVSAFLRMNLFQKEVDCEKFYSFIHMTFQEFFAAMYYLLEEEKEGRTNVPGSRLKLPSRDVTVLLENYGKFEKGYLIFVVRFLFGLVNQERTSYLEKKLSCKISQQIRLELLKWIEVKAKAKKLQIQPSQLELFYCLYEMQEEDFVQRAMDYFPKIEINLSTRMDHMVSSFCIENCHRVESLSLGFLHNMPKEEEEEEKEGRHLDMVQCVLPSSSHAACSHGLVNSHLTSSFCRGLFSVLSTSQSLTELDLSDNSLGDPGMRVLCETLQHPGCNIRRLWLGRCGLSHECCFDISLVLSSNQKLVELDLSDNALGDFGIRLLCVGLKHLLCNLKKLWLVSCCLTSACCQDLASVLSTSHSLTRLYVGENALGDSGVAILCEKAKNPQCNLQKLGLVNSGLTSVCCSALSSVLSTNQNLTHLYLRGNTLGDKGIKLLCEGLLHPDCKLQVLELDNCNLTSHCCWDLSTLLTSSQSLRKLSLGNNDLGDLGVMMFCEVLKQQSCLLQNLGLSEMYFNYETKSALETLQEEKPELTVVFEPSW

IC50 (NLRP3 [1]) | IC50 (NLRP3 [2]) | Compound
< 3200 nM | < 640 nM | CNC(=O)Cn1ccc(S(=O)(=O)NC(=O)Nc2c3c(cc4c2CCC4)CCC3)n1 [Example 2, 2-(3-(N-((1,2,3,5,6,7-Hexahydro-s-indacen-4-yl)carbamoyl)sulfamoyl)-1H-pyrazol-1-yl)-N-methylacetamide]
< 1600 nM | < 640 nM | O=C(Nc1c2c(cc3c1CCC3)CCC2)NS(=O)(=O)c1ccn(CCN2CCCC2)n1 [Example 3, N-((1,2,3,5,6,7-Hexahydro-s-indacen-4-yl)carbamoyl)-1-(2-(pyrrolidin-1-yl)ethyl)-1H-pyrazole-3-sulfonamide, sodium salt]
< 1600 nM | < 640 nM | CN(C)C1(Cn2ccc(S(=O)(=O)NC(=O)Nc3c4c(cc5c3CCC5)CCC4)n2)CC1 [Example 11, 1-((1-(Dimethylamino)cyclopropyl)methyl)-N-((1,2,3,5,6,7-hexahydro-s-indacen-4-yl)carbamoyl)-1H-pyrazole-3-sulfonamide]
< 1600 nM | < 2560 nM | CN1CC(n2ccc(S(=O)(=O)NC(=O)Nc3c4c(cc5c3CCC5)CCC4)n2)C1 [Example 12, N-((1,2,3,5,6,7-Hexahydro-s-indacen-4-yl)carbamoyl)-1-(1-methylazetidin-3-yl)-1H-pyrazole-3-sulfonamide]
< 800 nM | < 640 nM | CNCCn1ccc(S(=O)(=O)NC(=O)Nc2c3c(cc4c2CCC4)CCC3)n1 [Example 13, N-((1,2,3,5,6,7-Hexahydro-s-indacen-4-yl)carbamoyl)-1-(2-(methylamino)ethyl)-1H-pyrazole-3-sulfonamide]
< 3200 nM | < 640 nM | O=C(Nc1c2c(cc3c1CCC3)CCC2)NS(=O)(=O)c1ccn(C2CNC2)n1 [Example 14, 1-(Azetidin-3-yl)-N-((1,2,3,5,6,7-hexahydro-s-indacen-4-yl)carbamoyl)-1H-pyrazole-3-sulfonamide]
< 800 nM | < 160 nM | C[C@@H](Cn1ccc(S(=O)(=O)NC(=O)Nc2c3c(cc4c2CCC4)CCC3)n1)N(C)C [Example 18, (S)-1-(2-(Dimethylamino)propyl)-N-((1,2,3,5,6,7-hexahydro-s-indacen-4-yl)carbamoyl)-1H-pyrazole-3-sulfonamide]
< 3200 nM | < 640 nM | CN1CC(Cn2ccc(S(=O)(=O)NC(=O)Nc3c4c(cc5c3CCC5)CCC4)n2)C1 [Example 19, N-((1,2,3,5,6,7-Hexahydro-s-indacen-4-yl)carbamoyl)-1-((1-methylazetidin-3-yl)methyl)-1H-pyrazole-3-sulfonamide]
< 800 nM | < 640 nM | CN1CCC[C@@H]1Cn1ccc(S(=O)(=O)NC(=O)Nc2c3c(cc4c2CCC4)CCC3)n1 [Example 21, (R)—N-((1,2,3,5,6,7-Hexahydro-s-indacen-4-yl)carbamoyl)-1-((1-methylpyrrolidin-2-yl)methyl)-1H-pyrazole-3-sulfonamide]
< 3200 nM | < 2560 nM | CN(C)CCn1cnc(S(=O)(=O)NC(=O)Nc2c3c(cc4c2CCC4)CCC3)c1 [Example 23, 1-(2-(Dimethylamino)ethyl)-N-((1,2,3,5,6,7-hexahydro-s-indacen-4-yl)carbamoyl)-1H-imidazole-4-sulfonamide]
< 3200 nM | < 640 nM | CN(C)CCn1cc(S(=O)(=O)NC(=O)Nc2c3c(cc4c2CCC4)CCC3)nn1 [Example 25, 1-(2-(Dimethylamino)ethyl)-N-((1,2,3,5,6,7-hexahydro-s-indacen-4-yl)carbamoyl)-1H-1,2,3-triazole-4-sulfonamide, sodium salt]
< 400 nM | < 160 nM | COc1cc(-c2ccc3c(c2NC(=O)NS(=O)(=O)c2ccn(CCN(C)C)n2)CCC3)ccn1 [Example 26, 1-(2-(Dimethylamino)ethyl)-N-((5-(2-methoxypyridin-4-yl)-2,3-dihydro-1H-inden-4-yl)carbamoyl)-1H-pyrazole-3-sulfonamide]
< 800 nM | < 640 nM | CN(C)CCn1cnc(S(=O)(=O)NC(=O)Nc2c3c(cc4c2CCC4)CCC3)n1 [Example 27, 1-(2-(Dimethylamino)ethyl)-N-((1,2,3,5,6,7-hexahydro-s-indacen-4-yl)carbamoyl)-1H-1,2,4-triazole-3-sulfonamide]
< 3200 nM | < 640 nM | CN(C)CCn1ccc(S(=O)(=O)NC(=O)Nc2c(-c3cccnc3)cc(F)c3c2CCC3)n1 [Example 28, 1-(2-(Dimethylamino)ethyl)-N-((7-fluoro-5-(pyridin-3-yl)-2,3-dihydro-1H-inden-4-yl)carbamoyl)-1H-pyrazole-3-sulfonamide]
< 400 nM | < 40 nM | COc1cc(-c2cc(F)c3c(c2NC(=O)NS(=O)(=O)c2ccn(CCN(C)C)n2)CCC3)ccn1 [Example 29, 1-(2-(Dimethylamino)ethyl)-N-((7-fluoro-5-(2-methoxypyridin-4-yl)-2,3-dihydro-1H-inden-4-yl)carbamoyl)-1H-pyrazole-3-sulfonamide]
< 800 nM | < 640 nM | CC(C)c1cc(F)cc(-c2cccnc2)c1NC(=O)NS(=O)(=O)c1ccn(CCN(C)C)n1 [Example 30, 1-(2-(Dimethylamino)ethyl)-N-((4-fluoro-2-isopropyl-6-(pyridin-3-yl)phenyl)carbamoyl)-1H-pyrazole-3-sulfonamide]
< 1600 nM | < 160 nM | CC(C)(C#N)n1ccc(S(=O)(=O)NC(=O)Nc2c3c(cc4c2CCC4)CCC3)n1 [Example 33, 1-(2-Cyanopropan-2-yl)-N-((1,2,3,5,6,7-hexahydro-s-indacen-4-yl)carbamoyl)-1H-pyrazole-3-sulfonamide]
< 3200 nM | < 640 nM | N#CCn1ccc(S(=O)(=O)NC(=O)Nc2c3c(cc4c2CCC4)CCC3)n1 [Example 34, 1-(Cyanomethyl)-N-((1,2,3,5,6,7-hexahydro-s-indacen-4-yl)carbamoyl)-1H-pyrazole-3-sulfonamide]
< 10000 nM | < 160 nM | O=C(Nc1c2c(cc3c1CCC3)CCC2)NS(=O)(=O)c1ccn(Cc2ncco2)n1 [Example 35, N-((1,2,3,5,6,7-Hexahydro-s-indacen-4-yl)carbamoyl)-1-(oxazol-2-ylmethyl)-1H-pyrazole-3-sulfonamide]
< 800 nM | < 40 nM | Cn1ccnc1Cn1ccc(S(=O)(=O)NC(=O)Nc2c3c(cc4c2CCC4)CCC3)n1 [Example 118, N-((1,2,3,5,6,7-Hexahydro-s-indacen-4-yl)carbamoyl)-1-((1-methyl-1H-imidazol-2-yl)methyl)-1H-pyrazole-3-sulfonamide]

— patent publication US11613542B2, “Sulfonylureas and sulfonylthioureas as NLRP3 inhibitors” (Inflazome Limited, priority 2017, dated 2023)
